Data from patent US20030091998A1, “Association of beta2-adrenergic receptor haplotypes with drug response” (priority 2000, published 2003).

Tested on: asthma patients
Assay: In vivo FEV1 (bronchodilator) response to albuterol in asthma patients, by β2AR haplotype pair
Design: species or system human
Description: The patients in the asthma cohort were enrolled from an outpatient facility as described in detail elsewhere (Yan, L., Galinsky, R. E., Bernstein, J. A., Liggett, S. B. & Weinshilboum, R. M. (1999) Pharmacogenetics in Press). […] Forced expiratory volume in 1 second (FEV1) and forced vital capacity (FVC) were determined in triplicate. The predicted values for these measurements were calculated based on standard algorithms (Morris, J. F., Koski, A. & Johnson, L. C. (1971) Am Rev Respir Dis 103, 57-67).
The association between changes in % predicted FEV1 and haplotype pair was assessed by fitting an analysis of covariance model (ANCOVA) with terms for haplotype pair, sex and baseline severity. P-values from pairwise comparisons by haplotype pair were adjusted for multiple comparisons by applying the Holm-Sidak step-down procedure (Ludbrook, J. (1998) Clin and Exp Pharmacology & Physiology 25, 1032-1037.). […] In addition, the African-American asthma patients were excluded from the analysis due to the low number of individuals in this population group. For the analysis of individual SNPs, a similar ANCOVA model was employed with a discrete term for SNP genotype, and terms for sex and baseline severity. The Holm-Sidak step-down procedure was used to adjust the p-values from the individual SNP analyses for the number of tests performed.
Pairwise tests were made while correcting for multiple comparisons. […] For this analysis, a similar ANCOVA model as above was utilized. […] Since 0, 1 or 2 copies of these two haplotypes are present in our population as haplotype pairs 2/2, 2/4 and 4/4, a potential gene dose effect can be assessed by regression analysis.

CC(C)(C)NCC(O)c1ccc(O)c(CO)c1 (centres unmarked) [albuterol]
change % FEV1 (change in % predicted FEV1) (Caucasian asthma patients with β2AR haplotype pair 4/4, spirometry before and 30 min after inhalation of 180 μg albuterol by nebulization): 8.53±1.78%
bronchodilator response to albuterol (asthmatic patients with β2AR haplotype pair 2/6): moderate bronchodilator response
bronchodilator response to albuterol (asthmatic patients with β2AR haplotype pairs 2/2 and 4/6): respond well
bronchodilator response to albuterol (asthmatic patients with β2AR haplotype pairs 2/4 and 4/4): little to no response
greater response of haplotype pair 2/2 than haplotype pair 4/4 (in vivo FEV1 response, individuals with haplotype pair 2/2 vs 4/4 (FIG. 5)): ~50%
